From patent US9658235B2, “Pi-extended acedan derivatives, their application for two-photon microscopy imaging, and their application for two-photon microscopy imaging of amyloid-beta plaque in an alzheimer's disease animal model” (POSTECH ACADEMY-INDUSTRY FOUNDATION, priority 2015, dated 2017)
One block for each molecule: values may come before it.

How the values were obtained:
[1] = Absorption properties of two-photon absorbing fluorophores; format: physicochemical; details: 10 μM in ethanol solution (1%-DMSO included)
Procedure: More specifically, in order to determine the absorption properties of two-photon absorbing fluorophores, the inventors of the present invention filled quartz cells (114F-QS, Hellma Analytics) having a path length of 1 cm with an ethanol solution (1%-DMSO included) which included the compounds 4a to 7a (R1=R2=Me) having a concentration of 10 μM to measure absorption spectra. […] The absorption spectra were measured using an HP 8453 UV/Vis spectrophotometer.
Thereafter, a molar extinction coefficient (ε(Lmol^−1 cm^−1)) in a maximum absorption wavelength was calculated with respect to an ethanol solution (1%-DMSO included) which included the compounds 4a to 8a (R1=R2=Me) having a concentration of 10 μM, and the result is shown in FIG. 6. Referring to FIG. 6, it may be determined that the molar extinction coefficients (ε>11,500) for the two-photon absorbing fluorophores (particularly, compounds 4a to 8a (R1=R2=Me)) according to the embodiment of the present invention were larger than that (ε=10,700) of acedan known as a conventional two-photon absorbing fluorophore.

[2] = conventional acedan; cited from earlier work
[3] = Fluorescent properties (emission spectra, fluorescence quantum yield); format: physicochemical
Procedure: More specifically, in order to determine the fluorescent properties of two-photon absorbing fluorophores, the inventors of the present invention filled quartz cells having a path length of 1 cm with an ethanol solution (1%-DMSO included) which included the compounds 4a to 7a (R1=R2=Me) having a concentration of 10 μM to measure fluorescence spectra (fluorescence spectra were measured using a photon technical international fluorescence system). The results thereof with normalized fluorescence as a y-axis and light wavelength as an x-axis are shown in FIG. 1(B) and with fluorescence intensity as a y-axis and light wavelength as an x-axis are shown in FIG. 7.
Quartz cells having a path length of 1 cm were filled with a dichloromethane, acetonitrile, ethanol (1%-DMSO included) and PBS buffer solution (10 mM, pH 7.4, 0.1%-DMSO included) which included compound 4a (R1=R2=Me) having a concentration of 1 μM to measure fluorescence spectra.
Further, the fluorescence quantum yield was measured with respect to an ethanol solution including the compounds 4a to 8a (R1=R2=Me) having a concentration of 10 μM, and the result is shown in FIG. 6. Acedan which is mainly used was used as a comparative compound (fluorescence quantum yield, ΦF=0.52, measured in ethanol solution).

SHSY5Y cells = test: MTT cytotoxicity; format: cell-based; details: 1 hour, described as low cytotoxicity
Procedure: In order to determine the cytotoxicity of cells treated with the compound 4a (R1=R2=Me) and the compound 8a (R1=R2=Me), the metabolic capability of a formazan of SHSY5Y cells with respect to […] (MTT) was evaluated.
More specifically, the cells (100 μL/well) were prepared with the density of about 5×10^3 cells in each well on a 96-well plate. The cells were treated with the compound 4a (R1=R2=Me) and the compound 8a (R1=R2=Me) each having concentrations of 1, 20 and 50 μM, was incubated for 1 hour, were cleaned using a PBS buffer solution, and 25 μL of a MTT solution (5 mg/mL) was added to each well. After the cells were incubated at 37° C. for 2 hours, the media was removed, and a formazan crystal was dissolved in DMSO to measure absorbance using a plate reader. […] Accordingly, it may be determined that the cytotoxicity of the compound 4a (R1=R2=Me) and the compound 8a (R1=R2=Me) was low to be suitable for obtaining a two-photon microscope image in tissue and an animal model.

[4] = Fluorescence intensity according to pH; format: physicochemical; details: 10 μM, aqueous solution (1%-DMSO), pH 4 to 10, excitation 500 nm
Procedure: In order to determine the fluorescent properties (y-axis) of the compound 8a (R1=R2=Me) according to the pH (x-axis), quartz cells having a path length of 1 cm were filled with an aqueous solution (1%-DMSO included) which has a pH in the range of 4 to 10 and included the compound 8a (R1=R2=Me) having a concentration of 10 μM to measure the fluorescence spectrum, and the result is shown in FIG. 15.

amyloid beta 42 (Aβ 42) = molecular target: T1, amyloid beta 42 (Aβ 42) (Homo sapiens, UniProt P05067); test: Fluorescence spectra according to the presence of amyloid beta 42 and BSA; format: binding; details: 10 μM compound
T1 construct: according to the presence of amyloid beta 42 (Aβ 42)
Procedure: Quartz cells having a path length of 1 cm were filled with a PBS buffer solution (10 mM, pH 7.4, 0.1%-DMSO included) or an artificial cerebrospinal fluid (NaCl (124 mM), KCl (3 mM), NaH2PO4 (1.25 mM), MgCl2 (1 mM), NaHCO3 (36 mM), D-gluocose (10 mM), CaCl2(2 mM), 95%-O2, 5%-CO2 (by bubbler), aCSF and 1%-DMSO included) which included the compound 8a (R1=R2=Me) having a concentration of 10 μM to measure fluorescence spectra according to the presence of amyloid beta 42 (Aβ 42) and bovine serum albumin (BSA, 20 μg/mL), and the result is shown in FIG. 4. Referring to FIG. 4, it may be determined that the fluorescence intensity of the compound 8a (R1=R2=Me) was low when an amyloid beta plaque was absent, and the fluorescence intensity of the compound 8a (R1=R2=Me) increased when an amyloid beta plaque was present. […] In order to determine the fluorescent properties (y-axis) of the compound 8a (R1=R2=Me) according to the concentration of an amyloid beta plaque (x-axis), quartz cells having a path length of 1 cm were filled with a PBS buffer solution (1%-DMSO included) which included the compound 8a (R1=R2=Me) having a concentration of 10 μM and an amyloid beta plaque (0-50 μM) to measure fluorescence spectra, and the result is shown in FIG. 14.

amyloid beta plaque = molecular target: T2, amyloid beta plaque (Homo sapiens, UniProt P05067); test: In vivo two-photon microscope imaging of amyloid beta plaque in an Alzheimer's disease animal model; set-up: species or system 5XFAD mice
T2 construct: tissue The Jackson Laboratory stock no; 006554; host or cells: brain of living 5XFAD (Tg6799) mice, 13 months old, imaged through a cranial window
Procedure: In order to observe the two-photon microscope image of tissue of mice treated with the compound 8a (R1=R2=Me), 5XFAD mice (13-months-old, The Jackson Laboratory, Bar Harbor, Me., USA; stock no. 006554, Tg6799) were used. An amyloid beta plaque is shown as a typical characteristic of Alzheimer's disease.
All animal experiments were performed after the approval from an animal testing ethics committee. In an open-skull craniotomy surgery, imaging was performed after treatment with the compound 8a (R1=R2=Me) and MeO-X04 which is a well-known amyloid beta plaque fluorophore. The mice were fixed on a stereotactic heating surface using Zoletil 50 (Virbac; intramuscular injection, 0.03 mL) as an anesthetic agent (Seoul, Republic of Korea, 37° C.). After a scalp and periosteum were removed, a hole having a diameter of 3 mm was formed at a distance 1 mm from the bregma and 1 mm from the sagittal suture of a skull, a bone was removed, and then a round coverslip was adhered thereto using Loctite 454. The exposed portion of the skull was covered with a dental acrylic, and dexamethasone (0.2 mg/kg) and carprofen (5 mg/kg) which are anti-inflammatory drugs were used before and after the surgery.
A product manufactured by Carl Zeiss Microscopy GmbH (Oberkochen, Germany; model no. LSM 7 MP two-photon laser scanning microscope system) was used as a two-photon microscope. […] Further, the photo-bleaching process images and the relative fluorescence intensity in […] images before and after irradiation with a light source with respect to the compound 8a (R1=R2=Me) and a complex compound of an amyloid beta plaque are shown in FIG. 18. Referring to FIG. 18, it may be determined that the fluorescence intensity of the compound 8a (R1=R2=Me) decreased about 40% when irradiated with a two-photon light source for 35 minutes.

[5] = Solubility in PBS buffer solution from absorption spectra; format: physicochemical; details: PBS 10 mM, pH 7.4, DMSO of less than 1%; concentrations of 1, 5 and 10 μM
Procedure: Quartz cells having a path length of 1 cm were filled with a PBS buffer solution (10 mM, pH 7.4, DMSO of less than 1% included) which included the compounds 4a to 7a (R1=R2=Me) each having concentrations of 1, 2, 5 and 10 μM to measure absorption spectra.
Quartz cells having a path length of 1 cm were filled with a PBS buffer solution (10 mM, pH 7.4, DMSO of less than 1% included) which included the compound 8a (R1=R2=Me) each having concentrations of 1, 5, 10, 15 and 20 μM to measure absorption spectra.

T2 sequence (P05067 672-713 limits assumed): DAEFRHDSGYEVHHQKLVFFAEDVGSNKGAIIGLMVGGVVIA
T1 sequence (P05067 672-713 limits assumed): as above

molar extinction coefficient (ε) in a maximum absorption wavelength [1]: 10,700 Lmol^−1 cm^−1 | fluorescence quantum yield ΦF ([3]; measured in ethanol solution, comparative compound): 0.52
Structure (SMILES): CC(=O)c1ccc2cc(N(C)C)ccc2c1 [acedan, 1-(6-dimethylaminonaphthalene-2-yl) ethanone]
two-photon absorption efficiency value [2]: ~100 GM

fluorescence intensity according to pH [4]: low regardless of pH | fluorescence intensity when an amyloid beta plaque was present (amyloid beta 42 (Aβ 42); Aβ42 20 μM, PBS (pH 7.4) or aCSF, low when plaque absent): increased | conformity of image with MeO-X04 image (amyloid beta plaque; 30 mg/kg intraperitoneal, 24 hours before imaging, 1,000 nm, MeO-X04 10 mg/kg, 780 nm): significantly high | decrease of fluorescence intensity (photo-bleaching) (amyloid beta plaque; complex with amyloid beta plaque, tissue depth 50 μm, two-photon light source for 35 minutes): about 40% | solubility in a PBS buffer solution [5]: sufficient solubility
Structure (SMILES): CN(C)c1ccc2cc3c(cc2c1)OCC(C=C(C#N)C#N)=C3 [compound 8a, 2-(((8-dimethylamino)-2H-benzo[g]chromene-3-yl)methylene)malononitrile]
cytotoxicity (apoptosis) (SHSY5Y cells; 1 to 50 μM): 20% | selective detection of amyloid beta plaque (amyloid beta 42 (Aβ 42); Aβ42 versus BSA 20 μg/mL, PBS or aCSF): selectively detected an amyloid beta plaque | visualization of amyloid beta plaque in animal model with Alzheimer's disease (amyloid beta plaque; 30 mg/kg intraperitoneal, 13-month-old 5XFAD mice, frontal cortex, 1,000 nm, depth to 300 μm): selectively visualize an amyloid beta plaque

maximum emission wavelength (λem) compared with acedan ([3]; 1 μM in dichloromethane, acetonitrile, ethanol and PBS buffer solution): longer than that of conventional acedan
Structure (SMILES): CN(C)c1ccc2cc3c(cc2c1)OC1CCCC(=O)C1=C3 (stereo not shown) [compound 4a, 8-(dimethylamino)-2,3,4a-tetrahydro-1H-benzo[b]xanthene-1-one]
cytotoxicity (apoptosis) (SHSY5Y cells; 1 μM and 20 μM): 20%
